Legend:
Type in all cases: biochemical
PDE4A1A = molecular target: T1, PDE4A1A (Homo sapiens, UniProt P27815); test: PDE4 inhibitory activity assay (FAM-cAMP enzymatic reaction), PDE4A1A
T1 construct: purchased BPS 60040
Method: (§1) The compounds of the present disclosure were tested for their inhibitory activity (IC50 value) against PDE4A1A, PDE4B1, and PDE4D2.
(§2) Positive compound: Trequinsin (Sigma, Cat No. T20S7).
(§3) Instrument: Wallac Victor Muti-lable counter (Pekin Elmer) Steps of assay:
(§4) PDE enzymatic reaction; • 1) PDE was dissolved in 1× reaction solution to prepare 2× enzyme solution; • 2) FAM-cAMP was dissolved in 1× reaction solution to prepare 2× substrate solution; • 3) Corresponding volume of the compound in DMSO was transferred to the reaction plate through Echo 550; • 4) 2× enzyme solution was added into the corresponding wells of the reaction plate and incubated with the compound solution for 15 minutes at room temperature; • 5) 2× substrate solution was added into the corresponding well of the reaction plate to initiate the reaction; • 6) After the reaction plate was incubated at room temperature for 30 min, the reaction was terminated by adding reaction stopping solution. The reaction plate was incubated at room temperature for another 60 minutes;
(§5) Inhibition rates were calculated with Excel; and IC50 for each compound was calculated with Graphpad prism.

PDE4B1 = molecular target: T2, PDE4B1 (Homo sapiens, UniProt Q07343); test: PDE4 inhibitory activity assay (FAM-cAMP enzymatic reaction), PDE4B1
T2 construct: purchased BPS 60041
Method: as §1, §2, §3, §4, §5

PDE4D2 = PDE4D2 (Homo sapiens, UniProt Q08499); test: PDE4 inhibitory activity assay (FAM-cAMP enzymatic reaction), PDE4D2
Method: as §1, §2, §3, §4, §5

[1] = compared with Apremilast and Example 11 of WO2018036470 (WX011)

Chain of PDE4D2 (Q08499 303-809): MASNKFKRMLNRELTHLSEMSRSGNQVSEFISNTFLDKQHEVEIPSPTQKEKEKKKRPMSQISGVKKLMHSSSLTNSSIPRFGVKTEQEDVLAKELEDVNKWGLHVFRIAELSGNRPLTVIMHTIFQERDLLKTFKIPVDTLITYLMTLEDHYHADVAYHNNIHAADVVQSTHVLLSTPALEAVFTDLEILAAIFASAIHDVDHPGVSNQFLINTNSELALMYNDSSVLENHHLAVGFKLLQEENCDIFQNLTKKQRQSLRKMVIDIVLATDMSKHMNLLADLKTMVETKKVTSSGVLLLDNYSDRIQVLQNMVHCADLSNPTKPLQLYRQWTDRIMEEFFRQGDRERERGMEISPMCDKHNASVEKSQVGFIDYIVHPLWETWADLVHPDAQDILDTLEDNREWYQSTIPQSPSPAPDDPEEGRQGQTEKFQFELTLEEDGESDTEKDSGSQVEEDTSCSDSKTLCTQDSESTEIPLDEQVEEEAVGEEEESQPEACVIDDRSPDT
T1 sequence (P27815 1-647 isoform P27815-4): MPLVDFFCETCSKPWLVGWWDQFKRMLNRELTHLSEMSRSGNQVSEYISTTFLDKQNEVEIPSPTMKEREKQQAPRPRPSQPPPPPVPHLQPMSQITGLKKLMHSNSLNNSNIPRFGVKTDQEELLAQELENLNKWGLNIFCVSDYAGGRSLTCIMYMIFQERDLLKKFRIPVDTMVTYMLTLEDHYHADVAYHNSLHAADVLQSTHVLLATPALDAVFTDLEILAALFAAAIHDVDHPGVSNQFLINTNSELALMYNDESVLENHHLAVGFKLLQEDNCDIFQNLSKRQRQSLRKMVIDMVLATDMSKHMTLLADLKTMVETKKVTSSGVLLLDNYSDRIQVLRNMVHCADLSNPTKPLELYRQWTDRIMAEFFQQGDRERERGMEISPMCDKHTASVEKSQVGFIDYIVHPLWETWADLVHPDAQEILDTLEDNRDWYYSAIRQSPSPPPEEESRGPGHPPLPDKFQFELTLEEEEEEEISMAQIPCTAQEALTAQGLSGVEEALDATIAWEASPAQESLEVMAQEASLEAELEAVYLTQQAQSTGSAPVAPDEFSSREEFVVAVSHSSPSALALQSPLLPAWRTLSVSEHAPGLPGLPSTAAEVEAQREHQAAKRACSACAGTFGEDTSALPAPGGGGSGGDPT
T2 sequence (Q07343 whole entry): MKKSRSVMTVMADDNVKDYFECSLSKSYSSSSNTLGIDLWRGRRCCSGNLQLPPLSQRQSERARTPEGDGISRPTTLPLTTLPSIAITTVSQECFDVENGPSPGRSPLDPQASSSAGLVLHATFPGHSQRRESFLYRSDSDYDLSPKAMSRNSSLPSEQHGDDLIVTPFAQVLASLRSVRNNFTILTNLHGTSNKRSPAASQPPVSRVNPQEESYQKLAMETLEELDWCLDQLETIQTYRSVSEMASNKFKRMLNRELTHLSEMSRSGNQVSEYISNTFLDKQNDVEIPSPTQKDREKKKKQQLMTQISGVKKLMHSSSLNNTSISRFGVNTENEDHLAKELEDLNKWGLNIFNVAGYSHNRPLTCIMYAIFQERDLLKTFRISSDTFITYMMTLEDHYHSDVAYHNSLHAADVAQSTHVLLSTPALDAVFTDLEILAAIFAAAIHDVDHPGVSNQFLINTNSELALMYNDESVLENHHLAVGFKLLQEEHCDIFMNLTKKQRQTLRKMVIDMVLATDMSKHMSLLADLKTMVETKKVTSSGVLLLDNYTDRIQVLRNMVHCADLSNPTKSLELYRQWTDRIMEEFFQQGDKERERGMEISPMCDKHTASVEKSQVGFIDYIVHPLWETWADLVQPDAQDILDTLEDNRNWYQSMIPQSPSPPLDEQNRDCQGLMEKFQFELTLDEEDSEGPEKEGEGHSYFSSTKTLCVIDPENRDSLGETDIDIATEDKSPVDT

## CCOc1nc([C@@H](CS(C)(=O)=O)n2c(=O)n(C)c3c(C)c(-c4ccccn4)cnc32)ccc1OC [Ex. 19, (S)-3-(1-(6-ethoxy-5-methoxypyridin-2-yl)-2-(methylsulfonyl)ethyl)-1,7-dimethyl-6-(pyridin-2-yl)-1H-imidazo[4,5-b]pyridin-2(3H)-one]
PDE4A1A
  PDE4 A1 inhibitory effect at 20 nM: +
PDE4B1
  PDE4 B1 inhibitory effect at 20 nM: +
PDE4D2
  PDE4 D2 inhibitory effect at 20 nM: +

## CCOc1nc([C@@H](CS(C)(=O)=O)n2c(=O)n(CCOC)c3c(C)c(-c4ccccn4)cnc32)ccc1OC [Ex. 20, (S)-3-(1-(6-ethoxy-5-methoxypyridin-2-yl)-2-(methylsulfonyl)ethyl)-1-(2-methoxyethyl)-7-methyl-6-(pyridin-2-yl)-1H-imidazo[4,5-b]pyridin-2(3H)-one]
PDE4A1A
  PDE4 A1 inhibitory effect at 20 nM: +
PDE4B1
  PDE4 B1 inhibitory effect at 20 nM: +
PDE4D2
  PDE4 D2 inhibitory effect at 20 nM: +

## CCOc1nc([C@H](CS(C)(=O)=O)n2c(=O)n(C)c3c(C)c(-c4ccccc4F)cnc32)ccc1OC [Ex. 22]
PDE4A1A
  PDE4 A1 inhibitory effect at 20 nM: −
PDE4B1
  PDE4 B1 inhibitory effect at 20 nM: −
PDE4D2
  PDE4 D2 inhibitory effect at 20 nM: −

## CCOc1nc([C@@H](CS(C)(=O)=O)n2c(=O)[nH]c3c(C)c(-c4c(F)cccc4F)cnc32)ccc1OC [Ex. 23, (S)-6-(2,6-difluorophenyl)-3-(1-(6-ethoxy-5-methoxypyridin-2-yl)-2-(methylsulfonyl)ethyl)-7-methyl-1H-imidazo[4,5-b]pyridin-2(3H)-one]
PDE4A1A
  PDE4 A1 inhibitory effect at 20 nM: +
PDE4B1
  PDE4 B1 inhibitory effect at 20 nM: +
PDE4D2
  PDE4 D2 inhibitory effect at 20 nM: +

## CCOc1nc([C@H](CS(C)(=O)=O)n2c(=O)[nH]c3c(C)c(-c4c(F)cccc4F)cnc32)ccc1OC [Ex. 24, (R)-6-(2,6-difluorophenyl)-3-(1-(6-ethoxy-5-methoxypyridin-2-yl)-2-(methylsulfonyl)ethyl)-7-methyl-1H-imidazo[4,5-b]pyridin-2(3H)-one]
PDE4A1A
  PDE4 A1 inhibitory effect at 20 nM: −
PDE4B1
  PDE4 B1 inhibitory effect at 20 nM: −
PDE4D2
  PDE4 D2 inhibitory effect at 20 nM: −

## CCOc1nc([C@@H](CS(C)(=O)=O)n2c(=O)[nH]c3c(C)c(-c4cccc(F)c4F)cnc32)ccc1OC [Ex. 25, (S)-6-(2,3-difluorophenyl)-3-(1-(6-ethoxy-5-methoxypyridin-2-yl)-2-(methylsulfonyl)ethyl)-7-methyl-1H-imidazo[4,5-b]pyridin-2(3H)-one]
PDE4A1A
  PDE4 A1 inhibitory effect at 20 nM: +
PDE4B1
  PDE4 B1 inhibitory effect at 20 nM: +
PDE4D2
  PDE4 D2 inhibitory effect at 20 nM: +

## CCOc1nc([C@H](CS(C)(=O)=O)n2c(=O)[nH]c3c(C)c(-c4cccc(F)c4F)cnc32)ccc1OC [Ex. 26, (R)-6-(2,3-difluorophenyl)-3-(1-(6-ethoxy-5-methoxypyridin-2-yl)-2-(methylsulfonyl)ethyl)-7-methyl-1H-imidazo[4,5-b]pyridin-2(3H)-one]
PDE4A1A
  PDE4 A1 inhibitory effect at 20 nM: −
PDE4B1
  PDE4 B1 inhibitory effect at 20 nM: −
PDE4D2
  PDE4 D2 inhibitory effect at 20 nM: −

## CCOc1nc([C@@H](CS(C)(=O)=O)n2c(=O)[nH]c3c(C)c(-c4ccc(F)cc4F)cnc32)ccc1OC [Ex. 28, (S)-6-(2,4-difluorophenyl)-3-(1-(6-ethoxy-5-methoxypyridin-2-yl)-2-(methylsulfonyl)ethyl)-7-methyl-1H-imidazo[4,5-b]pyridin-2(3H)-one]
PDE4A1A
  PDE4 A1 inhibitory effect at 20 nM: +
PDE4B1
  PDE4 B1 inhibitory effect at 20 nM: +
PDE4D2
  PDE4 D2 inhibitory effect at 20 nM: +

## CCOc1nc([C@@H](CS(C)(=O)=O)n2c(=O)[nH]c3c(C)c(-c4cc(F)c(F)cc4F)cnc32)ccc1OC [Ex. 29, (S)-6-(2,4,5-trifluorophenyl)-3-(1-(6-ethoxy-5-methoxypyridin-2-yl)-2-(methylsulfonyl)ethyl)-7-methyl-1H-imidazo[4,5-b]pyridin-2(3H)-one]
PDE4A1A
  PDE4 A1 inhibitory effect at 20 nM: +
PDE4B1
  PDE4 B1 inhibitory effect at 20 nM: +
PDE4D2
  PDE4 D2 inhibitory effect at 20 nM: +

## CCOc1nc([C@H](CS(C)(=O)=O)n2c(=O)[nH]c3c(C)c(-c4cc(F)ccc4F)cnc32)ccc1OC [Ex. 30, (R)-6-(2,5-difluorophenyl)-3-(1-(6-ethoxy-5-methoxypyridin-2-yl)-2-(methylsulfonyl)ethyl)-7-methyl-1H-imidazo[4,5-b]pyridin-2(3H)-one]
PDE4A1A
  PDE4 A1 inhibitory effect at 20 nM: −
PDE4A1A; [1]
  inhibitory activity against PDE4A1A compared with Apremilast and WX011: significantly enhanced inhibitory activity
PDE4B1
  PDE4 B1 inhibitory effect at 20 nM: −
PDE4B1; [1]
  inhibitory activity against PDE4B1 compared with Apremilast and WX011: significantly enhanced inhibitory activity
PDE4D2
  PDE4 D2 inhibitory effect at 20 nM: −
PDE4D2; [1]
  inhibitory activity against PDE4D2 compared with Apremilast and WX011: significantly enhanced inhibitory activity

## CCOc1nc([C@@H](CS(C)(=O)=O)n2c(=O)[nH]c3c(C)c(-c4cc(C)ccc4C)cnc32)ccc1OC [Ex. 32, (S)-6-(2,5-dimethylphenyl)-3-(1-(6-ethoxy-5-methoxypyridin-2-yl)-2-(methylsulfonyl)ethyl)-7-methyl-1H-imidazo[4,5-b]pyridin-2(3H)-one]
PDE4A1A
  PDE4 A1 inhibitory effect at 20 nM: +
PDE4B1
  PDE4 B1 inhibitory effect at 20 nM: +
PDE4D2
  PDE4 D2 inhibitory effect at 20 nM: +

## CCOc1nc([C@@H](CS(C)(=O)=O)n2c(=O)[nH]c3c(C)c(-c4cccc(C)c4C)cnc32)ccc1OC [Ex. 33, (S)-6-(2,3-dimethylphenyl)-3-(1-(6-ethoxy-5-methoxypyridin-2-yl)-2-(methylsulfonyl)ethyl)-7-methyl-1H-imidazo[4,5-b]pyridin-2(3H)-one]
PDE4A1A
  PDE4 A1 inhibitory effect at 20 nM: +
PDE4B1
  PDE4 B1 inhibitory effect at 20 nM: +
PDE4D2
  PDE4 D2 inhibitory effect at 20 nM: +

## CCOc1nc([C@@H](CS(C)(=O)=O)n2c(=O)[nH]c3c(C)c(-c4c(C)cccc4C)cnc32)ccc1OC [Ex. 34, (S)-6-(2,6-dimethylphenyl)-3-(1-(6-ethoxy-5-methoxypyridin-2-yl)-2-(methylsulfonyl)ethyl)-7-methyl-1H-imidazo[4,5-b]pyridin-2(3H)-one]
PDE4A1A
  PDE4 A1 inhibitory effect at 20 nM: +
PDE4B1
  PDE4 B1 inhibitory effect at 20 nM: +
PDE4D2
  PDE4 D2 inhibitory effect at 20 nM: +

## CCOc1nc([C@@H](CS(C)(=O)=O)n2c(=O)[nH]c3c(C)c(-c4cc(F)ccc4C)cnc32)ccc1OC [Ex. 36, (S)-6-(5-fluoro-2-methylphenyl)-3-(1-(6-ethoxy-5-methoxypyridin-2-yl)-2-(methylsulfonyl)ethyl)-7-methyl-1H-imidazo[4,5-b]pyridin-2(3H)-one]
PDE4A1A
  PDE4 A1 inhibitory effect at 20 nM: +
PDE4B1
  PDE4 B1 inhibitory effect at 20 nM: +
PDE4D2
  PDE4 D2 inhibitory effect at 20 nM: +

## CCOc1nc([C@@H](CS(C)(=O)=O)n2c(=O)[nH]c3c(C)c(-c4cccc(F)c4C)cnc32)ccc1OC [Ex. 37, (S)-6-(3-fluoro-2-methylphenyl)-3-(1-(6-ethoxy-5-methoxypyridin-2-yl)-2-(methylsulfonyl)ethyl)-7-methyl-1H-imidazo[4,5-b]pyridin-2(3H)-one]
PDE4A1A
  PDE4 A1 inhibitory effect at 20 nM: +
PDE4B1
  PDE4 B1 inhibitory effect at 20 nM: +
PDE4D2
  PDE4 D2 inhibitory effect at 20 nM: +

## CCOc1nc([C@@H](CS(C)(=O)=O)n2c(=O)[nH]c3c(C)c(-c4cc(C)ccc4F)cnc32)ccc1OC [Ex. 38, (S)-6-(2-fluoro-5-methylphenyl)-3-(1-(6-ethoxy-5-methoxypyridin-2-yl)-2-(methylsulfonyl)ethyl)-7-methyl-1H-imidazo[4,5-b]pyridin-2(3H)-one]
PDE4A1A
  PDE4 A1 inhibitory effect at 20 nM: +
PDE4B1
  PDE4 B1 inhibitory effect at 20 nM: +
PDE4D2
  PDE4 D2 inhibitory effect at 20 nM: +

## CCOc1nc([C@@H](CS(C)(=O)=O)n2c(=O)[nH]c3c(C)c(-c4cccc(C)c4F)cnc32)ccc1OC [Ex. 39, (S)-6-(2-fluoro-3-methylphenyl)-3-(1-(6-ethoxy-5-methoxypyridin-2-yl)-2-(methylsulfonyl)ethyl)-7-methyl-1H-imidazo[4,5-b]pyridin-2(3H)-one]
PDE4A1A
  PDE4 A1 inhibitory effect at 20 nM: +
PDE4B1
  PDE4 B1 inhibitory effect at 20 nM: +
PDE4D2
  PDE4 D2 inhibitory effect at 20 nM: +

## CCOc1nc([C@@H](CS(C)(=O)=O)n2c(=O)[nH]c3c(C)c(-c4ccc(C)cc4F)cnc32)ccc1OC [Ex. 40, (S)-6-(2-fluoro-4-methylphenyl)-3-(1-(6-ethoxy-5-methoxypyridin-2-yl)-2-(methylsulfonyl)ethyl)-7-methyl-1H-imidazo[4,5-b]pyridin-2(3H)-one]
PDE4A1A
  PDE4 A1 inhibitory effect at 20 nM: +
PDE4B1
  PDE4 B1 inhibitory effect at 20 nM: +
PDE4D2
  PDE4 D2 inhibitory effect at 20 nM: +

## CCOc1nc([C@@H](CS(C)(=O)=O)n2c(=O)[nH]c3c(C)c(-c4cc(OC)ccc4F)cnc32)ccc1OC [Ex. 41, (S)-6-(2-fluoro-5-methoxyphenyl)-3-(1-(6-ethoxy-5-methoxypyridin-2-yl)-2-(methylsulfonyl)ethyl)-7-methyl-1H-imidazo[4,5-b]pyridin-2(3H)-one]
PDE4A1A
  PDE4 A1 inhibitory effect at 20 nM: +
PDE4B1
  PDE4 B1 inhibitory effect at 20 nM: +
PDE4D2
  PDE4 D2 inhibitory effect at 20 nM: +

## CCOc1nc([C@@H](CS(C)(=O)=O)n2c(=O)[nH]c3c(C)c(-c4cccc(OC)c4F)cnc32)ccc1OC [Ex. 42, (S)-6-(2-fluoro-3-methoxyphenyl)-3-(1-(6-ethoxy-5-methoxypyridin-2-yl)-2-(methylsulfonyl)ethyl)-7-methyl-1H-imidazo[4,5-b]pyridin-2(3H)-one]
PDE4A1A
  PDE4 A1 inhibitory effect at 20 nM: +
PDE4B1
  PDE4 B1 inhibitory effect at 20 nM: +
PDE4D2
  PDE4 D2 inhibitory effect at 20 nM: +

## CCOc1nc([C@@H](CS(C)(=O)=O)n2c(=O)[nH]c3c(C)c(-c4ccc(OC)cc4F)cnc32)ccc1OC [Ex. 43, (S)-6-(2-fluoro-4-methoxyphenyl)-3-(1-(6-ethoxy-5-methoxypyridin-2-yl)-2-(methylsulfonyl)ethyl)-7-methyl-1H-imidazo[4,5-b]pyridin-2(3H)-one]
PDE4A1A
  PDE4 A1 inhibitory effect at 20 nM: +
PDE4B1
  PDE4 B1 inhibitory effect at 20 nM: +
PDE4D2
  PDE4 D2 inhibitory effect at 20 nM: +
